Laboratory results: US20120121591A1 (priority 2009, published 2012)
Where two headings read alike, the source gives them in different places.

Assays:
[1] = tested on: IL-2 secretion from T cells in human whole blood; type: cell-based; conditions: read-out: WB (IL-2) IC50 (nM, Avg)
[2] = tested on: IFN-g secretion from T cells in human whole blood; type: cell-based
[3] = read-out: WB (IFNg) IC50 (nM, Avg)

## CC[C@H](C)[C@@H]1NC(=O)[C@@H](NC(=O)[C@H](CO)NC(=O)[C@@H](N)CCCNC(=N)N)CSSC[C@@H](C(=O)O)NC(=O)[C@H]([C@@H](C)O)NC(=O)CNC(=O)[C@@H]2CSSC[C@@H]3NC(=O)[C@H](CCC(N)=O)NC(=O)[C@H](Cc4ccccc4)NC(=O)[C@H](C)NC(=O)[C@H]([C@@H](C)O)NC(=O)[C@H](CSSC[C@H](NC(=O)[C@H](Cc4ccccc4)NC(=O)[C@H](CO)NC(=O)[C@H](CC(C)C)NC(=O)[C@H](CCCNC(=N)N)NC(=O)[C@H](Cc4ccc(O)cc4)NC(=O)[C@H](CCCCN)NC(=O)[C@H](CCSC)NC(=O)[C@H](C)NC(=O)[C@H](Cc4c[nH]cn4)NC(=O)[C@H](CCCCN)NC3=O)C(=O)N[C@@H](CCCNC(=N)N)C(=O)N[C@@H](CCCCN)C(=O)N[C@@H]([C@@H](C)O)C(=O)N2)NC(=O)[C@H](CCCNC(=N)N)NC(=O)[C@H](CO)NC(=O)[C@H](CCCCN)NC(=O)[C@@H]2CCCN2C(=O)[C@H]([C@@H](C)CC)NC(=O)[C@H]([C@@H](C)O)NC(=O)[C@H](CC(=O)O)NC1=O [[Ala20]ShK]
[1]
  IC50: 0.3 nM
[2]; [3]
  IC50: 0.825 nM

## CC[C@H](C)[C@@H]1NC(=O)[C@@H](NC(=O)[C@H](CO)NC(=O)[C@@H](N)CCCNC(=N)N)CSSC[C@@H](C(=O)O)NC(=O)[C@H]([C@@H](C)O)NC(=O)CNC(=O)[C@@H]2CSSC[C@@H]3NC(=O)[C@H](CCC(N)=O)NC(=O)[C@H](Cc4ccccc4)NC(=O)[C@H](CCC(=O)O)NC(=O)[C@H]([C@@H](C)O)NC(=O)[C@H](CSSC[C@H](NC(=O)[C@H](Cc4ccccc4)NC(=O)[C@H](CO)NC(=O)[C@H](CC(C)C)NC(=O)[C@H](CCCNC(=N)N)NC(=O)[C@H](Cc4ccc(O)cc4)NC(=O)[C@H](CCCCN)NC(=O)[C@H](CCSC)NC(=O)[C@H](CO)NC(=O)[C@H](Cc4c[nH]cn4)NC(=O)[C@H](CCCCN)NC3=O)C(=O)N[C@@H](CCCNC(=N)N)C(=O)N[C@@H](CCCCN)C(=O)N[C@@H]([C@@H](C)O)C(=O)N2)NC(=O)[C@H](CCCNC(=N)N)NC(=O)[C@H](CO)NC(=O)[C@H](CCCCN)NC(=O)[C@@H]2CCCN2C(=O)[C@H]([C@@H](C)CC)NC(=O)[C@H]([C@@H](C)O)NC(=O)[C@H](CC(=O)O)NC1=O [[Glu14]ShK]
[1]
  IC50: 0.035 nM
[2]; read-out: WB (IFNg) IC5- (nM, Avg)
  IC50: 0.132 nM

## CC[C@H](C)[C@@H]1NC(=O)[C@@H](NC(=O)[C@H](CO)NC(=O)[C@@H](N)CCCNC(=N)N)CSSC[C@@H](C(=O)O)NC(=O)[C@H]([C@@H](C)O)NC(=O)CNC(=O)[C@@H]2CSSC[C@@H]3NC(=O)[C@H](CCCCN)NC(=O)[C@H](Cc4ccccc4)NC(=O)[C@H](C)NC(=O)[C@H]([C@@H](C)O)NC(=O)[C@H](CSSC[C@H](NC(=O)[C@H](Cc4ccccc4)NC(=O)[C@H](CO)NC(=O)[C@H](CC(C)C)NC(=O)[C@H](CCCNC(=N)N)NC(=O)[C@H](Cc4ccc(O)cc4)NC(=O)[C@H](CCCCN)NC(=O)[C@H](CCSC)NC(=O)[C@H](CO)NC(=O)[C@H](Cc4c[nH]cn4)NC(=O)[C@H](CCCCN)NC3=O)C(=O)N[C@@H](CCCNC(=N)N)C(=O)N[C@@H](CCCNC(=N)N)C(=O)N[C@@H]([C@@H](C)O)C(=O)N2)NC(=O)[C@H](CCCNC(=N)N)NC(=O)[C@H](CO)NC(=O)[C@H](CCCCN)NC(=O)[C@@H]2CCCN2C(=O)[C@H]([C@@H](C)CC)NC(=O)[C@H]([C@@H](C)O)NC(=O)[C@H](CC(=O)O)NC1=O [[Lys16,Arg30]ShK]
[1]
  IC50: 0.169 nM
[2]; [3]
  IC50: 0.189 nM
